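Briefly, cells in 96-well plates were exposed to five compound concentrations for 48 h, and endpoints were estimated by linear interpolation. Abbreviation: GI50, concentration required for 50% inhibition of growth. Definition used: TGI = concentration required for complete inhibition of growth.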
Legend:
Test in all cases: NCI-60 cell line screen, 48 h
[1] = test system: ACHN renal
[2] = test system: U251 CNS
[3] = test system: SNB-75 CNS
[4] = test system: UACC-62 melanoma
[5] = test system: NCI-H23 lung
[6] = test system: HCT-15 colon
[7] = test system: HOP-18 NSCLC
[8] = test system: OVCAR-3 ovarian
[9] = test system: KM12 colon
[10] = test system: IGROV1 ovarian

| SMILES | TGI [1] [µM] | TGI [2] [µM] | TGI [3] [µM] | TGI [4] [µM] | TGI [5] [µM] | TGI [6] [µM] | TGI [7] [µM] | TGI [8] [µM] | TGI [9] [µM] | TGI [10] [µM] | GI50 [1] [µM] | GI50 [2] [µM] | GI50 [3] [µM] | GI50 [4] [µM] | GI50 [5] [µM] | GI50 [6] [µM] | GI50 [7] [µM] | GI50 [8] [µM] | GI50 [9] [µM] | GI50 [10] [µM] |
| --- | --- | --- | --- | --- | --- | --- | --- | --- | --- | --- | --- | --- | --- | --- | --- | --- | --- | --- | --- | --- |
| O=C(CCCCCCCCCCc1ccccc1)c1c(O)cccc1O | 69.9 | 38.1 | 63.8 | 36.2 | 35.9 | 38.7 | 67.5 | 63.1 | 33.2 | 60.5 | – | – | – | – | – | – | – | – | – | – |
| CC1CCC(O)C(C(O)CC2CC(=O)N(C)C(=O)C2)C1 (stereo not given) | > 100 | > 100 | > 100 | > 100 | > 100 | – | > 100 | > 100 | > 100 | > 100 | – | – | – | – | – | – | – | – | – | – |
| COc1ccc([Se]c2ccc(OC)cc2OC)c(OC)c1 | > 100 | > 100 | 36.9 | > 100 | > 100 | – | 86 | > 100 | > 100 | 59.9 | – | – | – | – | – | – | – | – | – | – |
| O=c1c2ccccc2nc(-c2ccccc2)n1NCC1(O)OCC(O)C(O)C1O (stereo not given) | > 100 | > 100 | > 100 | > 100 | > 100 | > 100 | > 100 | > 100 | > 100 | > 100 | – | – | – | – | – | – | – | – | – | – |
| CC(C)OP(=O)(CP(=O)(OC(C)C)OC(C)C)OC(C)C.[CH3][Sn]([Br])([Br])[Br] | > 100 | > 100 | > 100 | > 100 | > 100 | > 100 | > 100 | > 100 | > 100 | > 100 | > 100 | > 100 | > 100 | > 100 | > 100 | > 100 | > 100 | > 100 | > 100 | > 100 |
| Brc1ccc2c(c1)C1(c3cc(Br)ccc3-2)c2cc(Br)ccc2-c2ccc(Br)cc21 | > 100 | > 100 | – | > 100 | > 100 | > 100 | > 100 | > 100 | > 100 | > 100 | – | – | – | – | – | – | – | – | – | – |
| COC(=O)C12CC(C3CC31)C1CC12 (stereo not given) | > 100 | > 100 | – | > 100 | > 100 | > 100 | > 100 | > 100 | – | > 100 | – | – | – | – | – | – | – | – | – | – |
| CC(C)OP(=O)(OC(C)C)C(N(C)C)P(=O)(OC(C)C)OC(C)C.[Cl][Sn]([Cl])([Cl])[c]1ccccc1 | > 100 | > 100 | 39.5 | – | 31.3 | > 100 | > 100 | 53 | > 100 | 92.7 | 3.3 | 4.47 | 4.01 | – | 4.84 | 3.11 | > 100 | 5.64 | 3.6 | 3.61 |
| Clc1ccc2c(Cl)ncnc2c1 | > 100 | > 100 | > 100 | > 100 | > 100 | > 100 | – | > 100 | > 100 | > 100 | – | – | – | – | – | – | – | – | – | – |
| C/C(=C(/c1ccc(O)cc1)c1ccc(OCCN2CCCC2)cc1)c1ccccc1 | 16.3 | 5.49 | 15.7 | 4.72 | 18.2 | 4.64 | – | 18.1 | 13.2 | 27 | 4.28 | 2.24 | 3.07 | 2.26 | 4.31 | 1.81 | – | 5.66 | 3.51 | 6.8 |
| Nc1ncnc2occ(-c3ccc(NC(=O)Nc4cc(C(F)(F)F)cc(C(F)(F)F)c4)cc3)c12 | 12.6 | 6.64 | 4.88 | 6.68 | 6.86 | 7.83 | – | 6.71 | 3.95 | 9.94 | 2.94 | 3.28 | 1.42 | 3.26 | 3.12 | 2.98 | – | 3.24 | 0.0916 | 3.05 |
| CCOC(=O)c1[nH]c2c(c1C)-c1[nH]c(=O)c(S(=O)(=O)c3ccccc3)cc1SC2 | > 100 | > 100 | 86.6 | > 100 | > 100 | > 100 | – | > 100 | > 100 | > 100 | 47.3 | 31.1 | 24.8 | 46.7 | 41.1 | > 100 | – | 31.6 | 38.5 | 21.3 |
| Cc1cc(CS(=O)(=O)/C=C/c2ccccc2[N+](=O)[O-])c(CS(=O)(=O)/C=C/c2ccccc2[N+](=O)[O-])cc1C | > 100 | 71.3 | 32 | > 100 | > 51.7 | > 100 | – | > 100 | > 100 | > 100 | – | – | – | – | – | – | – | – | – | – |
| N#CC1c2ccccc2-c2ccccc2N1C(=O)c1ccccc1 (stereo not given) | > 100 | > 46.7 | > 49.4 | > 38.5 | > 100 | > 100 | – | 2.47 | 4.17 | 7.01 | 4.05 | 2.68 | 2.43 | 1.9 | 3.09 | 1.38 | – | 0.748 | 1.16 | 2.66 |
| Cc1ccc(NCSc2ccc(Cl)cc2)cc1 | > 100 | > 100 | 45.5 | > 100 | > 100 | > 100 | – | > 100 | > 100 | > 100 | > 100 | 17.8 | 9.92 | 87.2 | 63.4 | > 100 | – | 9.22 | 9.91 | 15.3 |
| COc1ccccc1Cn1cc2c(c1)-c1oncc1CC2 | > 100 | 39 | 9.7 | > 100 | > 55.3 | > 61.2 | – | 0.888 | 6.94 | > 78.7 | 2.12 | 0.503 | 0.396 | 1.11 | 0.8 | 0.535 | – | 0.307 | 0.435 | 1.84 |
| CCOC(=O)CCC1(C(=O)OC)CCCC1=O (stereo not given) | > 100 | > 100 | > 100 | – | > 100 | – | > 100 | > 100 | > 100 | > 100 | – | – | – | – | – | – | – | – | – | – |
| Cc1nn(-c2ccccc2)c2c1C1C(=C(c3ccc(Cl)cc3)N2)C(=O)Nc2ccccc21 (stereo not given) | > 100 | 12.3 | 96.3 | 15 | 47.9 | 18.6 | – | 20.3 | 20.8 | 60.2 | 3.51 | 2.98 | 3.9 | 3.56 | 4.46 | 3 | – | 4.39 | 3.6 | 3.82 |
| COC(=O)/C(=N\NC(=O)c1ccccc1O)C(C#N)c1ccc(Cl)cc1 (stereo not given) | > 100 | > 100 | – | > 100 | 76 | > 100 | > 100 | > 100 | > 100 | > 100 | – | – | – | – | – | – | – | – | – | – |
| CC(C)(C)n1cc(-c2ccnc(NCCNS(=O)(=O)c3ccc(Br)cc3)c2)c(-c2cccc(O)c2)n1 | 4.39 | 3.29 | 3.78 | 3.08 | 3.97 | 2.93 | – | 3.68 | 4.32 | 4.39 | 2.1 | 1.53 | 1.36 | 1.57 | 1.85 | 1.35 | – | 1.85 | 1.99 | 1.95 |
| O=C(Cc1nc2ccc(C(=O)c3ccccc3)cc2[nH]c1=O)C(=O)Nc1ccccc1[N+](=O)[O-] | > 100 | > 100 | > 100 | > 100 | > 100 | > 100 | – | > 100 | > 100 | > 100 | – | – | – | – | – | – | – | – | – | – |
| c1ccc2c(c1)nc(NCCN1CCNCC1)c1c3ccccc3[nH]c21 | 2.38 | 1.94 | 2.86 | 3.69 | 2.03 | 0.7 | – | 2.51 | 2.56 | 8.18 | 0.369 | 0.377 | 1.44 | 1.76 | 0.666 | 0.176 | – | 0.413 | 0.369 | 0.84 |
| CN1CCCC1c1cccnc1.O=C(O)c1ccccc1O.O=C([O-])c1ccccc1[OH2+].O=C([O-])c1ccccc1[OH2+].O=C([O-])c1ccccc1[OH2+].[Mn+2] (stereo not given) | > 100 | > 100 | > 100 | > 100 | > 100 | > 100 | – | 39.3 | > 100 | > 100 | > 100 | > 100 | > 100 | > 100 | > 100 | > 100 | – | 11.4 | > 100 | 97.7 |
| CC[C@]12C=CCN3CC[C@]4(C(=C(C(=O)OC)C1)Nc1cc(O)ccc14)[C@@H]32 | 41.4 | 36.9 | 40.2 | 22.3 | 37.7 | 36.5 | – | 33.9 | 30.6 | 57.3 | 18.5 | 15.6 | 7.38 | 7.18 | 16.8 | 14.6 | – | 17.7 | 13.1 | 19.1 |

— PubChem BioAssay (NCI)
